“Also recorded” adds a separate entry of the source.
Experiments:
[1] = test system: β-receptors of the skeletal musculature; test: β-mimetic effect on skeletal musculature (BOWMAN and NOTT): tension of incompletely tetanically contracting M. soleus of anaesthetized cats i.v.; assay type: in vivo; conditions: for Reduction in tension in % (x): anaesthetized cats, M. soleus, n=5
Procedure: (§1) 1. […] They were also compared for their acute toxicity.
The β-mimetic effect on the skeletal musculature was tested using the method of BOWMAN and NOTT (Pharmacol. Rev. 21, 27 (1969)). This investigates the influence on the tension of the incompletely tetanically contracting M. soleus of anaesthetized cats after i.v. administration.

fat cells = test: β-mimetic effect on fat cells: lipolytic effect (free fatty acids in blood) in conscious rabbits i.v.; assay type: in vivo; conditions: for ED150 (dose which resulted in a 50% increase in the free fatty acid in the blood): conscious rabbits, linear regression, range in parentheses
Description: as §1
The β-mimetic effect on the fat cells was investigated in terms of a lipolytic effect on conscious rabbits after i.v. administration.

mice = test: acute toxicity in male and female mice i.v.; assay type: in vivo
Procedure: as §1
(§2) The acute toxicity was measured in male and female mice weighing between 20 and 25 g after intravenous administration. An LD50 was calculated by […] from the percentage of animals which died within 14 days of being given the substance.

lambs = test: performance enhancing effect in lambs (feed, 6 weeks); assay type: in vivo, Suffolk×Galway wether lambs; conditions: for Weight of carcass / Final weight / Composition of carcass tissue (without bones): Protein / Feed utilization in g of weight gain per kg of feed / Composition of carcass tissue (without bones): Fat / Weight gain in g per day / Composition of carcass tissue (without bones): Water: 2 mg/kg in feed, 6 weeks; for Starting weight: baseline, control 34.4
Description: 2. […] At the same time steps were taken to ensure that the lambs were offered at least 10% excess feed during the experimental period. The lambs were then killed and the following parameters were obtained: […]

[2] = acute toxicity in male and female mice i.v.; assay type: in vivo; conditions: mouse, in vivo, iv, male and female mice, death within 14 days, range in parentheses
Procedure: as §1, §2

[3] = overall comparison of the enantiomers (biological effects, use to risk); assay type: in vivo; conditions: (-)- vs (+)-cimaterol, words
animals = conditions: U.S. Pat. No. 4,407,819; cited from earlier work

SMILES | ED150 (dose which resulted in a 50% increase in the free fatty acid in the blood) (fat cells) | Weight of carcass (lambs; control 22.8, 2 mg/kg) [kg] | Final weight (lambs; control 45.4, 2 mg/kg) [kg] | Composition of carcass tissue (without bones): Protein (lambs; control 140, 2 mg/kg) [g per kg] | Feed utilization in g of weight gain per kg of feed (lambs; control 190, 2 mg/kg) | Composition of carcass tissue (without bones): Fat (lambs; control 248, 2 mg/kg) [g per kg] | Weight gain in g per day (lambs; control 259, 2 mg/kg) [g per day] | Composition of carcass tissue (without bones): Water (lambs; control 501, 2 mg/kg) [g per kg] | Starting weight (lambs) [kg] | Reduction in tension in % (x) ([1]; dose 0.5 μg/kg) [%] | also measured
CC(C)NCC(O)c1ccc(N)c(C#N)c1 (single isomer, unassigned; (+)) [(+)-Cimaterol, (+)-1-(4'-Amino-3'-cyano-phenyl)-2-isopropylamino-ethanol] | 9.770 (7.440-12.700) μg/kg | 22.5 | 45.7 | 151 | 184 g of weight gain per kg of fee | 341 | 268 | 501 | 34.8 | – | Reduction in tension in % (x) ([1]; dose 50.0 μg/kg): 33.7%; doses needed to achieve a 50% increase in the free fatty acids, times greater than those of the corresponding L-enantiomer (fat cells; D- vs L-enantiomer, rabbits): about 100 times; LD50 (mice; male and female mice, death within 14 days, range in parentheses, 20160 min): 86.3 (80.6-92.3) mg/kg; toxicity of the D-enantiomer compared with the L-enantiomer (mice; mice, words): the same toxicity as the L-enantiomer
CC(C)NCC(O)c1ccc(N)c(C#N)c1 (single isomer, unassigned; (-)) [(-)-Cimaterol, (-)-1-(4'-Amino-3'-cyano-phenyl)-2-isopropylamino-ethanol] | 0.098 (0.078-0.118) μg/kg | 24.1 | 48.0 | 177 | 220 g of weight gain per kg of fee | 252 | 324 | 557 | 34.2 | 42.1 | times more effective than the corresponding D-enantiomer on the β-receptors of the skeletal musculature ([1]; L- vs D-enantiomer, cats): more than 100 times; LD50 at 336 h [2]: 74.8 mg/kg; carrier of the biological / desired effects of cimaterol [3]: the only carrier of the biological effects of cimaterol; also recorded: the sole carrier of the desired effects
CC(C)NCC(O)c1ccc(N)c(C#N)c1 (racemic) [Cimaterol, 1-(4'-amino-3'-cyano-phenyl)-2-isopropylaminoethanol, reference compound] | – | – | – | – | – | – | – | – | 34.9 | 38.3 | Weight of carcass (lambs; control 22.8): 24.0 kg; Final weight (lambs; control 45.4): 46.0 kg; Composition of carcass tissue (without bones): Protein (lambs; control 140): 167 g per kg; Feed utilization in g of weight gain per kg of feed (lambs; control 190): 196 g of weight gain per kg of fee; Composition of carcass tissue (without bones): Fat (lambs; control 248): 265 g per kg; Weight gain in g per day (lambs; control 259): 275 g per day; Composition of carcass tissue (without bones): Water (lambs; control 501): 556 g per kg; performance-enhancing effect (animals): performance-enhancing effect

Reference: patent US5648386A (priority 1990, dated 1997)
